Reference: US11414385B2, “Compounds and methods for treating, detecting, and identifying compounds to treat apicomplexan parasitic diseases” (The University of Chicago, priority 2015, dated 2022)
Like-named read-outs stand apart in the source and are kept apart here.

What was measured:
[1] = Microsomal metabolic stability, human; type: in vitro ADME; details: for half-life: human, liver microsomes
[2] = tested on: MDR1; test: in vitro; type: in vitro ADME; details: dog, MDCK-MDR1, MDCK-MDR1 Efflux Ratio
[3] = target: T1, Plasmodium falciparum bc1 complex cytochrome c reductase (Pfbc1) (Plasmodium falciparum, UniProt Q02768); test: Pfbc1 native assay (cytochrome c reduction by parasite extract); type: biochemical; details: compound 1 μM, mean ± s.e.m. of 4 independent experiments
T1 construct: Parasite extract was then prepared by disruption with a sonicating probe; endogenous in cells; host or cells: P. falciparum 3D7 blood-stage parasites, saponin-freed and sonicated (crude parasite extract)
T1 sequence (Q02768 1-376): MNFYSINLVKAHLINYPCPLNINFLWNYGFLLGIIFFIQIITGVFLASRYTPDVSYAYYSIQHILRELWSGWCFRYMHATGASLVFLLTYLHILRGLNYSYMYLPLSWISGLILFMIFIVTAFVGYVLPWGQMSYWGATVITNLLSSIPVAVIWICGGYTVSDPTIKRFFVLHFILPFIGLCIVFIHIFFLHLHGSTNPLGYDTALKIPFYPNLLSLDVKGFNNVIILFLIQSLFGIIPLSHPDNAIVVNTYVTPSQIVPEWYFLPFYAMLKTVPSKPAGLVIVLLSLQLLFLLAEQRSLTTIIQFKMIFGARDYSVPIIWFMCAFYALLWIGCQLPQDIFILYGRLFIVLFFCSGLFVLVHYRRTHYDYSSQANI
Description: Plasmodium falciparum: 3D7 strain was obtained from the Liverpool School of Tropical Medicine. Protease cocktail inhibitor was obtained from Roche. Bradford protein assay dye reagent was obtained from Bio-Rad. All other reagents were obtained from Sigma-Aldrich. Decylubiquinol was produced as per Fisher et al. (Fisher et al. 2004)^21. In brief, 25 mg of decylubiquinone were dissolved in 400 μl of nitrogen-saturated hexane. An equal volume of aqueous 1 M sodium dithionite was added, and the mixture vortexed until colorless. The organic phase containing the decylubiquinol was collected, the solvent was evaporated under N2 and the decylubiquinol finally dissolved in 100 μl of 96% ethanol (acidified with 10 mM HCl). Concentrations of decylubiquinol was determined spectrophotometrically on a Cary 300 Bio UV/visible spectrophotometer (Varian, UK) from absolute spectra, using ε288-320=8.1 mM-1·cm^−1. Decylubiquinol was stored at −80° C. and used within two weeks.
The protocol for the preparation of parasite extract was adapted from Fisher et al. (Fisher et al. 2009)^22. Free parasites were prepared from infected erythrocytes pooled from five T75 flasks, by adding 5 volumes of 0.15% (w/v) saponin in phosphate-buffered saline (137 mM NaCl, 2.7 mM KCl, 1.76 mM K2HPO4, 8.0 mM Na2HPO4, 5.5 mM D-glucose, pH 7.4) for 5 min, followed by three washes by centrifugation in RPMI containing HEPES (25 mM), and a final resuspension in potassium phosphate buffer (50 mM K2HPO4, 50 mM KH2PO4, 2 mM EDTA, pH7.4) containing a protease inhibitor cocktail (Complete Mini; Roche). Parasite extract was then prepared by disruption with a sonicating probe for 5 s, followed by a 1 min rest period on ice to prevent the sample overheating. […] The protein concentration of the parasite extract was determined by Bradford protein assay (Bio-Rad).
Plasmodium falciparum bc1 complex cytochrome c reductase (Pfbc1) activity was measured by monitoring cytochrome c reduction at 550 versus 542 nm using a Cary 300 Bio UV-Visible Spectrophotometer (Varian, UK), using a protocol adapted from Fisher et al. (Fisher et al. 2009)^21-23. […]

| Structure (SMILES) | Human liver microsomes T1/2 [1] | remaining after 45 mins in human liver microsomes ([1]; 45 mins) [%] | efflux ratio [2] | Inhibition of cytochrome c reduction (% atovaquone response) [3] [% atovaquone response] | Human microsomal stability T1/2 [1] [h] | half-life ([1]; read-out: Human liver microsomes T1/2) [h] | half-life ([1]; read-out: Human microsomal stability T1/2) [h] | inhibition at 1 µM ([3]; read-out: Inhibition of cytochrome c reduction (% atovaquone response)) [%] |
| --- | --- | --- | --- | --- | --- | --- | --- | --- |
| Cc1[nH]c2c(c(=O)c1-c1ccc(Oc3ccc(OC(F)(F)F)cc3)cc1)CCCC2 [JAG21, 2-methyl-3-(4-(4-(trifluoromethoxy)phenoxy)phenyl)-5,6,7,8-tetrahydroquinolin-4(1H)-one] | ∞ | > 99 | < 1.5 | 86.4 ± 3.2 | – | – | – | – |
| Cc1[nH]c2c(c(=O)c1-c1ccc(Oc3ccccc3)cc1)CCCC2 [MJM170] | – | – | < 1.5 | – | 2.438 | 2.44 | 2.43 | 69.7 ± 11.3 |
